Experiments:
DU145 BP = test: TUNEL assay of xenografted cancers; type: in vivo, human; details: DU145 BP clone containing TMEM135-CCDC67 breakpoint; FIG. 16B, treated with Ad-TC
Experimental: (§1) FIG. 16A-B. (A) Expression of Cas9^D10A and HSV1-tk in HUH7 or HEP3B tumors treated with Ad-TC or pAD5-Cas9^D10A-gRNAMAN2A1^int13-gRNAFER^int14/pAD-MAN2A1^int13-EGFP-tk-FER^int14 (Ad-MF). Green arrows indicate unstained mouse stromal cells. (B) Genome therapy induced apoptosis of xenografted cancers that contain fusion gene breakpoints. Terminal deoxynucleotidyl transferase (TdT) dUTP Nick-End Labeling (TUNEL) assays were performed on the PC3 BP, DU145 BP, PC3 CMV, DU145 CMV, or HUH7 xenografted cancers treated with either Ad-TC or Ad-MF.
(§2) Immunohistochemistry. Immunohistochemistry was performed as described previously 6 with antibodies specific for HSV-1 TK (1:100 dilution) or for Cas9 (1:100 dilution). The antibody was omitted in negative controls. The sections were then incubated with horseradish peroxidase conjugated anti-rabbit IgG for 30 minutes at room temperature (ABC kit from Vector Labs, Inc). Slides were then exposed to a 3,3′-diaminobenzidine solution to visualize immunostaining. Counterstaining was performed by incubating the slides in 1% Hematoxylin solution for 2 minutes at room temperature. The slides were then rinsed briefly in distilled water to remove excessive staining. The procedure of TUNEL assays is similar to that previously described (13).

PC3 BP = test: TUNEL assay of xenografted cancers; type: in vivo, human; details: PC3 BP clone containing TMEM135-CCDC67 breakpoint; FIG. 16B, treated with Ad-TC
Experimental: as §1, §2

Compound: Nc1nc(O)c2ncn(COC(CO)CO)c2n1 [ganciclovir]
- cell death observed by tunel staining (DU145 BP): significant cell death
- cell death observed by tunel staining (PC3 BP): significant cell death

Source: patent publication US11517629B2, “Methods of treating cells containing fusion genes by genomic targeting” (UNIVERSITY OF PITTSBURGH—OF THE COMMONWEALTH SYSTEM OF …, priority 2016, dated 2022)
